Reference: publication PMC3681751, “Identification of a Novel Antimicrobial Peptide from Human Hepatitis B Virus Core Protein Arginine-Rich Domain (ARD)” (PLoS Pathogens, 2013)
Values after ≈ are worked out from the molar mass of the structure shown. Read-outs that look alike come from different tables or passages of the source. Positions of bridges follow the written chain, without caps; N, C: chain ends. Non-standard residues stand in square brackets, D forms with d. Residues, ends and D or L forms follow the SMILES beside them. No end group written: not given here. *: point of attachment. X1 = CC[C@H](C)CCCCC(=O)*; Dab = NCC[C@H](N)C(=O)O

Experiments:
[1] = test system: P. aeruginosa NHRI-01; assay type: cell-based, Pseudomonas aeruginosa; conditions: Colistin resistant strain; colistin susceptibility by broth-dilution (CLSI)
Source text: (§1) Clinical isolates of Pseudomonas aeruginosa (NHRI-01, NHRI-02 and NHRI-04) were obtained through the program of Taiwan Surveillance of Antimicrobial Resistance (TSAR), National Health Research Institutes (NHRI), Taiwan. Acinetobacter baumannii (ATCC 17989, ATCC 17978 CR, ATCC19606, ATCC 19606 CR, TCGH 45530 and TCGH 46709) were obtained from Tzu-Chi Buddhist General Hospital (TCGH) in Taiwan, and clinical isolates (TCGH 45530 and TCGH 46709) were identified using the Vitek system (Biomerieux Vitek, Inc., Hazelwood, MO, USA). A. baumannii is defined as multidrug-resistant, when the organism is resistant to piperacillin, piperacillin-tazobactam, ampicillin/sulbactam, imipenem, ceftazidime, gentamicin, amikacin, tetracycline, chloramphenicol, ciprofloxacin, and cotrimoxazole. Susceptibility to colistin was determined using the broth-dilution method, in accordance with the guidelines of the Clinical and Laboratory Standards Institute (CLSI).
(§2) All peptides were purchased from Yao-Hong Biotechnology Inc. (Taipei, Taiwan). Vendors provided data of peptide characterizations, including HPLC and Mass (data not shown). Antimicrobial activity was determined as described with some modifications as detailed below. Bacteria were grown overnight in Mueller–Hinton broth (Difco) at 37°C, and during the mid-logarithmic phase, bacteria were diluted to 10^6 CFU (colony formation unit)/ml in phosphate buffer (10 mM sodium phosphate and 50 mM sodium chloride, pH 7.2). Peptides were serially diluted in the same buffer. Fifty microliter (µl) of bacteria was mixed with fifty µl of peptides at varying concentrations followed by incubation at 37°C for 3 hours without shaking. At the end of incubation, bacteria were placed on Mueller-Hinton broth agar plates, and allowed growth at 37°C overnight for measurement of minimal bactericidal concentration (MBC). […] All peptides were tested in triplicate.

[2] = test system: P. aeruginosa NHRI-04; assay type: cell-based, Pseudomonas aeruginosa; conditions: Colistin sensitive strain; colistin susceptibility by broth-dilution (CLSI)
Source text: as §1, §2

[3] = test system: P. aeruginosa NHRI-02; assay type: cell-based, Pseudomonas aeruginosa; conditions: Colistin sensitive strain; colistin susceptibility by broth-dilution (CLSI)
Source text: as §1, §2

[4] = test system: A. baumannii ATCC17978 CR; assay type: cell-based, Acinetobacter baumannii; conditions: Induced Colistin resistant strain; colistin susceptibility by broth-dilution (CLSI)
Source text: as §1, §2

[5] = test system: A. baumannii TCGH45530; assay type: cell-based, Acinetobacter baumannii; conditions: Clinical isolate, multidrug resistance; colistin susceptibility by broth-dilution (CLSI)
Source text: as §1, §2

[6] = test system: A. baumannii TCGH46709; assay type: cell-based, Acinetobacter baumannii; conditions: Clinical isolate, multidrug resistance; colistin susceptibility by broth-dilution (CLSI)
Source text: as §1, §2

[7] = test system: A. baumannii ATCC19606 CR; assay type: cell-based, Acinetobacter baumannii; conditions: Induced Colistin resistant strain; colistin susceptibility by broth-dilution (CLSI)
Source text: as §1, §2

[8] = test system: A. baumannii ATCC17978; assay type: cell-based, Acinetobacter baumannii; conditions: Reference strain; colistin susceptibility by broth-dilution (CLSI)
Source text: as §1, §2

[9] = test system: A. baumannii ATCC19606; assay type: cell-based, Acinetobacter baumannii; conditions: Reference strain; colistin susceptibility by broth-dilution (CLSI)
Source text: as §1, §2

[10] = test system: P. aeruginosa (ATCC 27853); assay type: cell-based, Pseudomonas aeruginosa
Protocol: (§3) The antimicrobial activities of HBc ARD peptides were tested using a number of bacterial strains from ATCC, including Pseudomonas aeruginosa Migula strain (ATCC 27853, ampicillin-resistant), Pseudomonas aeruginosa Migula strain (ATCC 9027, ampicillin-resistant), Klebsiella pneumoniae strain (ATCC 17593), Escherichia coli strain (ATCC 25922), Staphylococcus aureus subsp. strain (ATCC 25923, methicillin-resistant), Staphylococcus aureus subsp. strain (ATCC 29213, methicillin-resistant), Staphylococcus aureus subsp. strain (ATCC 19636, methicillinresistant), and Candida albicans strain (ATCC 10231).
as §2

[11] = test system: P. aeruginosa (ATCC 9027); assay type: cell-based, Pseudomonas aeruginosa
Protocol: as §3, §2

[12] = test system: K. pneumonia (ATCC 13884); assay type: cell-based, Klebsiella pneumoniae
[13] = test system: E. coli (ATCC 25922); assay type: cell-based, Escherichia coli; conditions: 3 h at 37°C in phosphate buffer pH 7.2; triplicate
Protocol: as §3, §2

[14] = test system: P. aeruginosa; assay: SYTOX Green uptake (membrane permeabilization); assay type: cell-based, Pseudomonas aeruginosa; conditions: 0.5, 1 and 2 µM, dose-dependent; triplicates
Protocol: Briefly, bacteria (10^7 CFU) were prepared and mixed with 1 µM SYTOX Green (Invitrogen) for 15 minutes in the dark. […] Melittin (Sigma), the major toxin of bee venom, was used as a positive control to provide maximal permeabilization.

[15] = test system: HepG2 cells; assay: Peptide uptake into mammalian cells; assay type: cell-based, human; conditions: peptide added to the medium of HepG2 cells
Protocol: To set up CFSE cell proliferation assay, 293 cells (human kidney origin) and Vero cells (monkey kidney origin) were resuspended in PBS to a final concentration of 10^6 cells/ml, before incubation with 10 µM CFSE dye (CellTrace CFSE cell proliferation kit, Invitrogen) at 37°C for 10 min. To quench the staining, ice-old culture media were then added and incubated on ice for 5 min. Labeled cells were then pelleted and washed three times by fresh medium containing 10% FBS before seeding into six well plates at a density of 3.3×10^5cells/well. After 20 h, the medium was removed and incubated with fresh medium containing 5, 25 and 100 µM HBc 147-183 for one hour (FITC-labeled ARD peptide had been largely internalized in 10 minutes after the addition of ARD peptides to the medium of HepG2 cells). Forty-eight hours later, cells were harvested and analyzed by flow cytometry (FACSCanto, BD Bioscience).

[16] = ampicillin-resistant strain, 3 h at 37°C in phosphate buffer pH 7.2, triplicate

Compound	MBC [1] [µg/mL]	MBC [2] [µg/mL]	MBC [3] [µg/mL]	MBC [4] [µg/mL]	MBC [5] [µg/mL]	MBC [6] [µg/mL]	MBC [7] [µg/mL]	MBC [8] [µg/mL]	MBC [9] [µg/mL]	Antimicrobial activity, MBC ([10]; ATCC 27853, 3 h, pH 7.2) [µM]	Antimicrobial activity, MBC [10, 16] [µg/mL]	Antimicrobial activity, MBC ([11]; ATCC 9027, 3 h, pH 7.2) [µM]	Antimicrobial activity, MBC [11, 16] [µg/mL]	MBC against P. aeruginosa ([11]; summary over the P. aeruginosa strains of Table 1 (ATCC 9027, ATCC 27853))	Antimicrobial activity, MBC ([12]; 3 h at 37°C in phosphate buffer pH 7.2, triplicate) [µg/mL]	Antimicrobial activity, MBC ([12]; ATCC 13884, 3 h, pH 7.2) [µM]	Antimicrobial activity, MBC [13] [µg/mL]	Time to membrane permeabilization (SYTOX Green uptake) [14] [min]	Time after which peptide was largely internalized [15] [min]
CC[C@H](C)CCCCC(=O)N[C@@H](CCN)C(=O)N[C@H](C(=O)N[C@@H](CCN)C(=O)N[C@H]1CCNC(=O)[C@H]([C@@H](C)O)NC(=O)[C@H](CCN)NC(=O)[C@H](CCN)NC(=O)[C@H](CC(C)C)NC(=O)[C@@H](CC(C)C)NC(=O)[C@H](CCN)NC1=O)[C@@H](C)O [Colistin] (X1-[Dab]T[Dab][Dab][Dab][dL]L[Dab][Dab]T; lactam 4-C (inferred); N-terminus assumed)	>8	4 (≈ 3.42 µM)	4 (≈ 3.42 µM)	>8	>8	>8	8 (≈ 6.84 µM)	4 (≈ 3.42 µM)	2 (≈ 1.71 µM)										
C[C@@H](O)[C@H](NC(=O)[C@H](CCCNC(=N)N)NC(=O)[C@H](CCCNC(=N)N)NC(=O)[C@H](CCCNC(=N)N)NC(=O)[C@@H]1CCCN1C(=O)[C@H](CO)NC(=O)[C@H](CCCNC(=N)N)NC(=O)CN)C(=O)N1CCC[C@H]1C(=O)N[C@@H](CO)C(=O)N1CCC[C@H]1C(=O)N[C@@H](CCCNC(=N)N)C(=O)N[C@@H](CCCNC(=N)N)C(=O)N[C@@H](CCCNC(=N)N)C(=O)N[C@@H](CCCNC(=N)N)C(=O)N[C@@H](CO)C(=O)N[C@@H](CCC(N)=O)C(=O)N[C@@H](CO)C(=O)N1CCC[C@H]1C(=O)N[C@@H](CCCNC(=N)N)C(=O)N[C@@H](CCCNC(=N)N)C(=O)N[C@@H](CCCNC(=N)N)C(=O)N[C@@H](CCCNC(=N)N)C(=O)N[C@@H](CO)C(=O)O [HBc153-176] (H-GRSPRRRTPSPRRRRSQSPRRRRS-OH; N-terminus and C-terminus assumed)										1 to 2	3 to 6	1 to 2	3 to 6	strong activity	> 96	> 32	48	≤ 10	
CC[C@H](C)CCCCC(=O)N[C@@H](CCN)C(=O)N[C@H](C(=O)N[C@@H](CCN)C(=O)N[C@H]1CCNC(=O)[C@H]([C@@H](C)O)NC(=O)[C@H](CCN)NC(=O)[C@H](CCN)NC(=O)[C@H](CC(C)C)NC(=O)[C@@H](Cc2ccccc2)NC(=O)[C@H](CCN)NC1=O)[C@@H](C)O [Polymyxin B] (X1-[Dab]T[Dab][Dab][Dab][dF]L[Dab][Dab]T; lactam 4-C (inferred); N-terminus assumed)	4 (≈ 3.32 µM)	2 (≈ 1.66 µM)	2 (≈ 1.66 µM)	8 (≈ 6.65 µM)	8 (≈ 6.65 µM)	>8	>8	4 (≈ 3.32 µM)	2 (≈ 1.66 µM)										
FITC-labeled HBc147-183: FITC-labeled HBc147-183 used for localization by confocal microscopy (TVVRRRGRSPRRRTPSPRRRRSQSPRRRRSQSRESQC; also: FITC label, place not given here; UniProt P03147 147-183, looked up, fragment)																			10
